Assay results reported in patent publication US20220160686A1, “MACROCYCLIC AZOLOPYRIDINE DERIVATIVES AS EED AND PRC2 MODULATORS” (Fulcrum Therapeutics, Inc., priority 2019, published 2022).

Experiments:
[1] = tested on: Human Mobilized Peripheral Blood Primary CD34+ cells; assay: Fetal hemoglobin (HbF) upregulation assay of CD34+ cells; type: cell-based
Procedure: Human Mobilized Peripheral Blood Primary CD34+ cells were expanded from thaw by seeding 100,000 viable cells/mL in a culture flask containing CD34+ Expansion Media comprised of StemSpan SFEMII (Stemcell Technologies #09655), 1% erythroid expansion supplement (Stemcell Technologies #02692), and 1 μM dexamethasone (Sigma #D2915). The cells were supplemented by adding an additional IX culture volume of CD34+ Expansion Media on Day 3 after thaw. After 7 days of expansion, Primary CD34+ cells were differentiated towards erythroid lineage by seeding at 15,000 viable cells/well in 96-well V-Bottom plates (Corning #3894) containing 135 μL CD34+ Differentiation Media comprised of StemSpan SFEMII (Stemcell Technologies #09655), 3% normal human serum (Sigma #H4522), 3 IU/mL erythropoietin (ThermFisher #PHC2054). Chemical probes for treatment were resuspended in 100 μL of Iscove's Modified Dulbecco's Medium (Stemcell Technologies #36150) to a 10× concentration, and 15 μL of 10× concentrated chemical probe was added to each well for a total well volume of 150 μL. Primary CD34+ cells were left to incubate at 37° C., 85% relative humidity, and 5% C02 for 3 days. On Day 3, assay plates containing Primary CD34+ cells were centrifuged at 500×g for 5 minutes. After centrifugation cells were pelleted to the bottom of the well, and 100 μL of media aspirated from the well without disturbing the cells. Then 90 μL of fresh CD34+ Differentiation Media and 10 μL of 10× concentrated chemical probes were added back each well. For the H3K27me3 assay, cells were harvested on Day 4 of treatment. The Primary CD34+ cells were centrifuged at 500×g for 5 minutes and all media was aspirated from the well. Then 150 μL of phosphate buffered saline (ThermoFisher #10010023) was added to each well to resuspend the cells. Finally, 50 μL of the Primary CD34+ cell suspension from each well was transferred to a poly-d-lysine coated 384-well plate (Corning Cat #356697) and centrifuged at 1000×g for 5 minutes before proceeding to ICC Fix and Stain Protocol. Assay plates for the HbF assay were returned to the incubator until Day 5, where the media was exchanged and chemical probes added exactly as on Day 3. On Day 7 of the HbF assay, the Primary CD34+ cells were harvested in the same manner as described for the H3K27me3 assay before proceeding to ICC Fix and Stain Protocol. […]
The plates were then scanned on the CX7 at 10× magnification, and 9 images were acquired per well. The software algorithm then identified nuclei and calculated a total nuclei count using the Hoechst staining on channel 1. After nuclei were identified, the algorithm calculated the average nuclear intensity of the H3K27me3 or HbF staining on channel 2. […]

HUDEP2 cells = assay: Fetal hemoglobin (HbF) upregulation assay of HUDEP2 cells; type: cell-based
Procedure: HUDEP2 cells were maintained and passaged every 2-3 days by seeding 300,000 viable cells/mL in a culture flask containing HUDEP2 Growth Media comprised of StemSpan SFEM (Stemcell Technologies #09650), 50 ng/mL human stem cell factor (Stemcell Technologies #78062.2), 3 IU/mL erythropoietin (ThermoFisher #PHC2054), 1 μM dexamethasone (Sigma #D2915), and […] doxycycline (Sigma #D3072). HUDEP2 cells were differentiated towards erythroid lineage by seeding at 25,000 viable cells/well in 96-well V-Bottom plates (Corning #3894) containing 135 μL HUDEP2 Differentiation Media comprised of Iscove's Modified Dulbecco's Medium (Stemcell Technologies #36150), 1% L-glutamine (ThermoFisher #25030081), 2% penicillin-streptomycin (ThermoFisher #15140122), 330 μg/mL holo-human transferrin (Sigma #T0665), 2 IU/mL heparin (Stemcell Technologies #07980), 10 μg/mL recombinant human insulin (Sigma #91077C), 3 IU/mL erythropoietin (ThermoFisher #PHC2054), 100 ng/mL human stem cell factor (Stemcell Technologies #78062.2), and 4% fetal bovine serum (ThermoFisher #A3160502). Chemical probes for treatment were resuspended in 100 μL of Iscove's Modified Dulbecco's Medium (Stemcell Technologies #36150) to a 10× concentration, and 15 μL of 10× concentrated chemical probes were added to each well for a total well volume of 150 μL. HUDEP2 cells were left to incubate at 37° C., 85% relative humidity, and 5% CO2 for 3 days. On Day 3, assay plates containing HUDEP2 cells were centrifuged at 500×g for 5 minutes. After centrifugation cells were pelleted to the bottom of the well, and 100 μL of media aspirated from the well without disturbing the cells. Then 90 μL of fresh HUDEP2 Differentiation Media and 10 μL of 10× concentrated chemical probes were added back each well. For the H3K27me3 assay, cells were harvested on Day 4 of treatment. The HUDEP2 cells were centrifuged at 500×g for 5 minutes and all media was aspirated from the well. Then 150 μL of phosphate buffered saline (ThermoFisher #10010023) was added to each well to resuspend the cells. Finally, 50 μL of the HUDEP2 cell suspension from each well was transferred to a poly-d-lysine coated 384-well plate (Corning Cat #356697) and centrifuged at 1000×g for 5 minutes before proceeding to ICC Fix and Stain Protocol. Assay plates for the HbF assay were returned to the incubator until Day 5, where the media was exchanged and chemical probes added exactly as on Day 3. On Day 7 of the HbF assay, the HUDEP2 cells were harvested in the same manner as described for the H3K27me3 assay before proceeding to ICC Fix and Stain Protocol.
The Fix and Stain Protocol was the same for HEK293T, HUDEP2, and Primary CD34+ cell assays except the specific primary and secondary antibodies used for detection. Following 4 days of compound treatment, the respective plates were washed once with 25 μL of PBS (ThermoFisher #10010023) and fixed with 25 μL of 4% paraformaldehyde (ThermoFisher #28908) for 10 minutes at room temperature. The plates were then washed three times with 25 μL of PBS. Subsequent to that, the cells were permeabilized and blocked for 1 hour at room temperature in 25 μL of Perm/Block buffer comprised of IX PBS, 1% bovine serum albumin (ThermoFisher #A3294), 10% fetal bovine serum (ThermoFisher #A3160502), 0.3M glycine (Sigma #G7126), and 0.1% tween-20 (Sigma #P7949). This was followed by additional washing (three times) of the plates with 25 μL of 0.1% tween in PBS.
Plates for the HbF assay were treated similarly as described above except that HbF Primary Antibody (ThermoFisher #MHFH01-4) diluted 1:40 in 0.1% tween-20 in PBS and Hoescht (ThermoFisher #H3570) diluted 1:2000 in 0.1% tween-20 in PBS were used for detection.
The plates were then scanned on the CX7 at 10× magnification, and 9 images were acquired per well. The software algorithm then identified nuclei and calculated a total nuclei count using the Hoechst staining on channel 1. […]

| Compound | EC50 [1] [nM] | EC50 (HUDEP2 cells) [nM] |
| --- | --- | --- |
| Fc1cncnc1-c1cc2c(n3cnnc13)NCc1c(F)ccc3c1[C@@H](CO3)CO2 [Compound 164, (S)-12-fluoro-4-(5-fluoropyrimidin-4-yl)-7a,8,13,14-tetrahydro-7H-[1,2,4]triazolo[4′,3′:1,6]pyrido[3,2-b]benzofuro[4,3-fg][1,4]oxazonine] | < 25 | – |
| Cc1cc(C#N)ccc1-c1cc2c(n3cnnc13)NCc1c(F)ccc3c1[C@H](CO3)CO2 [Example 49] | – | 50 to 100 |
| Cn1nc(C(F)(F)F)cc1-c1cc2c(n3cnnc13)NCc1c(F)ccc3c1[C@H](CO3)CO2 [Example 115] | 50 to 100 | < 25 |
| Cc1ncc(-c2cc3c(n4cnnc24)NCc2c(F)ccc4c2[C@@H](CO4)CO3)c(C)n1 [Compound 13, (S)-4-(2,4-dimethylpyrimidin-5-yl)-12-fluoro-7a,8,13,14-tetrahydro-7H-[1,2,4]triazolo[4′,3′:1,6]pyrido[3,2-b]benzofuro[4,3-fg][1,4]oxazonine] | – | 50 to 100 |

Results, then the compound that gave them:

| EC50 [1] [nM] | EC50 (HUDEP2 cells) [nM] | Compound |
| --- | --- | --- |
| – | 50 to 100 | CS(=O)(=O)c1ccc(-c2cc3c(n4cnnc24)NCc2c(F)ccc4c2C(CO4)CO3)cc1 (stereo not shown) [Example 36] |
| < 25 | < 25 | Cn1nccc1-c1cc2c(n3cnnc13)NCc1c(F)ccc3c1C(CO3)CO2 (stereo not shown) [Example 17] |
| – | 100 to 500 | COc1ncc(-c2cc3c(n4cnnc24)NCc2c(F)ccc4c2[C@H](CO4)CO3)cn1 [Example 30] |
| 100 to 500 | – | Cc1cn(-c2cc3c(n4cnnc24)NCc2c(F)ccc4c2[C@@H](CO4)CO3)cn1 [Compound 15, (S)-12-fluoro-4-(4-methyl-1H-imidazol-1-yl)-7a,8,13,14-tetrahydro-7H-[1,2,4]triazolo[4′,3′:1,6]pyrido[3,2-b]benzofuro[4,3-fg][1,4]oxazonine] |
